Measurements: US20110190274A1, “SALT OF, AND PROCESSES FOR THE PREPARATION OF, 1-ISOPROPYL-4-HEXAHYDRO-1H-1,4-DIAZEPINE” (GLAXO GROUP LIMITED, priority 2008, published 2011)
Structures can show the parent of a compound that is named as a salt. Where two headings read alike, the source gives them in different places. Values belong to the compound of their own block, whether it stands above or below them.

Assays:
histamine H3 receptor [1] = target: T1, histamine H3 receptor (Homo sapiens, UniProt Q9Y5N1); experiment: histamine H3 functional antagonist assay using membrane prepared from cultured H3 cells; assay type: biochemical
T1 construct: host or cells: cultured H3 cells (membranes)
Protocol: 1-Isopropyl-4-{[4-(tetrahydro-2H-pyran-4-yloxy)phenyl]carbonyl}hexahydro-1H-1,4-diazepine hydrochloride was tested using substantially the histamine H3 functional antagonist assay disclosed on pages 47-49, and in particular page 48 line 26 to page 49 line 7, of WO 2009/030716 A1 (Glaxo Group Limited). The result is expressed as a functional pKi (fpKi) value. A functional pKi is the negative logarithm of the antagonist equilibrium dissociation constant as determined in the H3 functional antagonist assay using membrane prepared from cultured H3 cells. The result given is an average of a number of experiments.

[2] = Gravimetric vapour sorption (GVS), water sorption/desorption isotherm at varying relative humidity; assay type: physicochemical; details: for water reversibly adsorbed and/or absorbed, and/or desorbed (GVS): relative to minimum mass; for weight gain relative to the minimum mass at 0% RH (GVS) / weight gain cf. minimum mass (GVS): 25° C.
Protocol: Gravimetric vapour sorption (GVS) data were acquired on a Hiden IGA-Sorp analyser model (available from Hiden Isochema Ltd., 231 Europa Boulevard, Gemini Business Park, Warrington WA5 7TN, United Kingdom), generating a full sorption/desorption isotherm using water vapour perfusion at 25° C. under nitrogen gas and at varying relative humidities (RH).
23 milligrams of a sample of the crystalline Form 1 of 1-isopropyl-4-{[4-(tetrahydro-2H-pyran-4-yloxy)phenyl]carbonyl}hexahydro-1H-1,4-diazepine mono-maleate prepared in Example 4 were placed into a clean and dry tared sample mesh pan and weighed using the IGA-Sorp internal balance.
(i) starting from about 30% RH and increasing to about 90% RH in increments of about 10% RH (results shown as the solid line in the middle and on the right of FIG. 5), and then (ii) decreasing from about 90% RH to 0% RH in increments of about 10% RH (results shown as the dotted line in FIG. 5), and then (iii) increasing from 0% RH to about 30% RH, in increments of about 5% RH up to ca. 10% RH, and then in increments of about 10% RH from ca. 10% to ca. 30% RH (results shown as the solid line on the left of FIG. 5).
The weight of the sample was recorded after each ca. 10% RH increment. The point of equilibrium, after each ca. 10% RH increment, was automatically determined using a 97% asymptote setting.
Gravimetric Vapour Sorption (GVS) data, on the solid 1-isopropyl-4-{[4-(tetrahydro-2H-pyran-4-yloxy)phenyl]carbonyl}hexahydro-1H-1,4-diazepine hydrochloride from Example 2, Part C (the “kinetic” solid hydrochloride salt produced by fast crystallisation, and before purification by recrystallisation), were acquired on a DVS-1 SMS model (available from Surface Measurement System (SMS)), generating a full sorption/desorption isotherm using water vapour perfusion at 25° C. under nitrogen gas and at varying relative humidities (RH).
22 milligrams of the specified solid hydrochloride salt sample were placed into a clean and dry tared sample glass pan and weighed using the DVS-1 internal balance.
(i) starting from about 30% RH and increasing to about 90% RH in increments of about 10% RH (results shown as the line in the middle and on the right of FIG. 6, going from ca. 7-8% weight gain cf. minimum mass at ca. 30% RH, to ca. 14-15% weight gain cf. minimum mass at ca. 90% RH), and then (ii) decreasing from about 90% RH to 0% RH in increments of about 10% RH (results shown as the line in FIG. 6, starting from ca. 14-15% weight gain cf. minimum mass at ca. 90% RH, going towards the left almost horizontally to ca. 14% weight gain at ca. 30% RH, and then going rapidly down to 0% weight gain at 0% RH), and then (iii) increasing from 0% RH to about 30% RH in increments of about 10% RH (results shown as the line on the bottom left of FIG. 6, going from 0% weight gain at 0% RH to about 2% weight gain at ca. 30% RH).
The weight of the sample was recorded after each ca. 10% RH increment. The point of equilibrium was automatically determined using a 0.02 dm/dt setting.

histamine H3 receptor [3] = target: T2, histamine H3 receptor (Rattus norvegicus, UniProt Q9QYN8); details: following oral administration to the rat; cited from earlier work
T2 construct: from tissue; host or cells: rat cortex

rats = details: certain oral doses; cited from earlier work
[4] = Hygroscopicity and stability of the solid diazepine intermediate salts in air; assay type: physicochemical; details: for hygroscopicity of the solid: air at normal humidities, normal relative humidity (e.g. ca. 30%) at 25° C.
Source text: (i) The use of 1-isopropyl-hexahydro-1H-1,4-diazepine bis-trifluoroacetate allows the avoidance of the use of toxic dioxane in the preparation of 1-(isopropyl)-hexahydro-1H-1,4-diazepine dihydrochloride (from the BOC-protected precursor e.g. Intermediate 1), which preparation typically (see e.g. Intermediate 2 herein) uses HCl (e.g. 4M HCl) in dry dioxane (to avoid the water present in aqueous hydrochloric acid) in order to obtain solid 1-(isopropyl)hexahydro-1H-1,4-diazepine dihydrochloride. […] This hygroscopicity makes it difficult to quantify and weigh the dihydrochloride salt for the coupling reaction, and also can lead to the presence of undesired water in the coupling reaction (e.g. with DCI).

[5] = Karl Fischer analysis of water content; assay type: physicochemical; details: normal United Kingdom room humidity
Protocol: A Karl Fischer analysis of water content was carried out on the crystalline Form 1 mono-maleate salt prepared in Example 4 (at normal United Kingdom room humidity). This Karl Fischer analysis reported a water content of less than 0.1% w/w.

rodent = details: literature reports; cited from earlier work
[6] = across the 0-90% relative humidity range at 25° C. under nitrogen

T1 sequence (Q9Y5N1 whole entry): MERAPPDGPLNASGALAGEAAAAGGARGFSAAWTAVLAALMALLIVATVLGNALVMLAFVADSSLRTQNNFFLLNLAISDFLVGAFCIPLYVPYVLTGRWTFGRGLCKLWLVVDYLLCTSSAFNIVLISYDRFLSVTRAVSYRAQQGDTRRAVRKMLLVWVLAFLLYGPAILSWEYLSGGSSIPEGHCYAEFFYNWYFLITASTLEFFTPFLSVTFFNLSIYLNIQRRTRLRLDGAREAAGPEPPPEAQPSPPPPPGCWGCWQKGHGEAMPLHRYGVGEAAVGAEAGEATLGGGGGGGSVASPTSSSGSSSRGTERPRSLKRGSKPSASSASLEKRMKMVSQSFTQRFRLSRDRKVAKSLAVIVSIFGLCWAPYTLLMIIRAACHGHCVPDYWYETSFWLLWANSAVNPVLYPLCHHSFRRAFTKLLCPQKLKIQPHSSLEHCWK
T2 sequence (Q9QYN8 whole entry): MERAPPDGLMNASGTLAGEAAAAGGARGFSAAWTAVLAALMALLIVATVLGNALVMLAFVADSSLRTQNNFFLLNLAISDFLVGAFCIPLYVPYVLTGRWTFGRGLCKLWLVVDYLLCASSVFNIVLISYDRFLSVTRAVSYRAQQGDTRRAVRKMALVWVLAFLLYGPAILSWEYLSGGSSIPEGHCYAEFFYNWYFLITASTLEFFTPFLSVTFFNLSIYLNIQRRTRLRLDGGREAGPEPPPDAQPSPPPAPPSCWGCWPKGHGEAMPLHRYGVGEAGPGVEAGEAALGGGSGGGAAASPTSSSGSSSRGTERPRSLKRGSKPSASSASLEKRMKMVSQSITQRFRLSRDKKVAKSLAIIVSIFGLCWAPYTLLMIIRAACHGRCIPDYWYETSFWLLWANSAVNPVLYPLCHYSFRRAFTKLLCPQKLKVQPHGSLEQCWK

Ki (histamine H3 receptor [1]; 12 experiments, read-out: range of measured fpKi values): 0.501 to 20 nM
Ki (histamine H3 receptor [1]; mean of 12 experiments, read-out: functional pKi (fpKi), H3 antagonism (converted)): ~5.01 nM
water sorption compared with crystalline Form 1 mono-maleate (GVS) [2, 6]: higher quantities of water
water reversibly adsorbed and/or absorbed, and/or desorbed (GVS) [2, 6]: 14-15 % w/w
weight gain relative to the minimum mass at 0% RH (GVS) ([2]; at about 30% RH, start of first sorption): 7-8 % w/w
weight gain relative to the minimum mass at 0% RH (GVS) ([2]; at about 90% RH, end of first sorption): 14-15 % w/w
weight gain cf. minimum mass (GVS) ([2]; at ca. 30% RH on desorption from ca. 90% RH): ca. 14%
weight gain cf. minimum mass (GVS) ([2]; at ca. 30% RH on re-sorption from 0% RH): about 2%
Compound: CC(C)N1CCCN(C(=O)c2ccc(OC3CCOCC3)cc2)CC1.Cl [Example 2 Part C, 1-Isopropyl-4-{[4-(tetrahydro-2H-pyran-4-yloxy)phenyl]carbonyl}hexahydro-1H-1,4-diazepine hydrochloride]

water content (Karl Fischer) [5]: less than 0.1 % w/w
Compound: CC(C)N1CCCN(C(=O)c2ccc(OC3CCOCC3)cc2)CC1.O=C(O)/C=C\C(=O)O [Example 4, 1-Isopropyl-4-{[4-(tetrahydro-2H-pyran-4-yloxy)phenyl]carbonyl}hexahydro-1H-1,4-diazepine mono-maleate salt (crystalline Form 1)]

stability of the solid [4]: long-term stability
hygroscopicity of the solid [4]: substantially non-hygroscopic
Compound: CC(C)N1CCCNCC1 [Intermediate 3, 1-Isopropyl-hexahydro-1H-1,4-diazepine bis-trifluoroacetate salt]

water reversibly adsorbed and/or absorbed, and/or desorbed (GVS) [2, 6]: 0.4-0.5 % w/w
Compound: CC(C)N1CCCN(C(=O)c2ccc(OC3CCOCC3)cc2)CC1 [Example 2 Part A, 1-Isopropyl-4-{[4-(tetrahydro-2H-pyran-4-yloxy)phenyl]carbonyl}hexahydro-1H-1,4-diazepine]

More lines, now with the values behind:

Compound: CNC(=O)c1ccc(Oc2ccc3c(c2)CCN(C2CCC2)CC3)nc1 [GSK189254]
ex vivo binding in the rat cortex (histamine H3 receptor [3]): inhibited
performance in cognition paradigms (rats): improved performance

Compound: CC(C)N1CCCNCC1.Cl.Cl [Intermediate 2, 1-Isopropyl-hexahydro-1H-1,4-diazepine dihydrochloride]
hygroscopicity of the solid [4]: very hygroscopic

Compound: CC(C)(C)CCC#C[C@@H]1C[C@H]1c1c[nH]cn1 [GT-2331]
cognitive effect in rodent models (rodent): cognitive enhancing properties

Compound: NC(=NCc1ccc(Cl)cc1)SCCCc1cnc[nH]1 [clobenpropit]
cognitive effect in rodent models (rodent): cognitive enhancing properties

Compound: O=C(c1ccc(OCCCc2cnc[nH]2)cc1)C1CC1 [ciproxifan]
cognitive effect in rodent models (rodent): cognitive enhancing properties

Compound: S=C(NC1CCCCC1)N1CCC(c2cnc[nH]2)CC1 [thioperamide]
cognitive effect in rodent models (rodent): cognitive enhancing properties
